Test results as given in patent US20230113037A1 (Bayer Aktiengesellschaft, priority 2019, published 2023).
Where two headings read alike, the source gives them in different places.

Tests used:
AHR [1] = molecular target: T1, AHR (Homo sapiens, UniProt P35869); assay: In vitro assay 1: antagonism in human cell line (AHR transactivation, firefly luciferase reporter, kynurenic acid prestimulated); type: cell-based; details: AHR Antagonism Human IC50 [M]
T1 construct: U87 MG glioblastoma cells (ATCC #HTB-14) endogenously expressing AHR; endogenous in cells; host or cells: U87 MG glioblastoma cells (ATCC #HTB-14)
T1 sequence (P35869 11-848): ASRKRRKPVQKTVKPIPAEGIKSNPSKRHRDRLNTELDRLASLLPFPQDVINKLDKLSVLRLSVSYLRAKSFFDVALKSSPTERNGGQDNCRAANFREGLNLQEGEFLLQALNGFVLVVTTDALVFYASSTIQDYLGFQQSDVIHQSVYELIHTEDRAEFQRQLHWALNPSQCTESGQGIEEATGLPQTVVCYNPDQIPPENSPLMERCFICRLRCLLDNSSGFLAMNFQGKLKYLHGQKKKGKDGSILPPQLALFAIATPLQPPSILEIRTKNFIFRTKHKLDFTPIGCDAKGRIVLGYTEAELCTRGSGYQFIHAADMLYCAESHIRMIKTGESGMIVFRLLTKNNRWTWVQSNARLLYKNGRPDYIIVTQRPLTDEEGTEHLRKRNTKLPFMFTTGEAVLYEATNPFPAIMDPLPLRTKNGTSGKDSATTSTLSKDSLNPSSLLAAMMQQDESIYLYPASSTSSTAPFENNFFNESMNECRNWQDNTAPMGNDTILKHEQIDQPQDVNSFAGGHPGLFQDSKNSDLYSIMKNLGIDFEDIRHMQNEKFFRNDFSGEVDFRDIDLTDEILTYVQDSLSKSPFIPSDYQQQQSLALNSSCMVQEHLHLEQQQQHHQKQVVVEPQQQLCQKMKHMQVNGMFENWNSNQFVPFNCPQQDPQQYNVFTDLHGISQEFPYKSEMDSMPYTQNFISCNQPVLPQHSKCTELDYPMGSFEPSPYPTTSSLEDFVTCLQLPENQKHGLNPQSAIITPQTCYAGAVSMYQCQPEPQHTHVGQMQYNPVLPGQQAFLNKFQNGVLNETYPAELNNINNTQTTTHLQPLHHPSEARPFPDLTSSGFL
Outline: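 U87 MG + DRE-firefly/constitutive-Renilla stable reporters; kynurenic acid prestim; dual-luc read; Renilla = tox; normalized vs pos/neg controls (pos: 150 μM KYNA + 5 μM staurosporine).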

AHR [2] = molecular target: T2, AHR (Mus musculus, UniProt P30561); assay: In vitro assay 3: antagonism in mouse cell line (AHR transactivation, firefly luciferase reporter, kynurenic acid prestimulated); type: cell-based
T2 sequence (P30561 1-848 P471L/N533S/M589L): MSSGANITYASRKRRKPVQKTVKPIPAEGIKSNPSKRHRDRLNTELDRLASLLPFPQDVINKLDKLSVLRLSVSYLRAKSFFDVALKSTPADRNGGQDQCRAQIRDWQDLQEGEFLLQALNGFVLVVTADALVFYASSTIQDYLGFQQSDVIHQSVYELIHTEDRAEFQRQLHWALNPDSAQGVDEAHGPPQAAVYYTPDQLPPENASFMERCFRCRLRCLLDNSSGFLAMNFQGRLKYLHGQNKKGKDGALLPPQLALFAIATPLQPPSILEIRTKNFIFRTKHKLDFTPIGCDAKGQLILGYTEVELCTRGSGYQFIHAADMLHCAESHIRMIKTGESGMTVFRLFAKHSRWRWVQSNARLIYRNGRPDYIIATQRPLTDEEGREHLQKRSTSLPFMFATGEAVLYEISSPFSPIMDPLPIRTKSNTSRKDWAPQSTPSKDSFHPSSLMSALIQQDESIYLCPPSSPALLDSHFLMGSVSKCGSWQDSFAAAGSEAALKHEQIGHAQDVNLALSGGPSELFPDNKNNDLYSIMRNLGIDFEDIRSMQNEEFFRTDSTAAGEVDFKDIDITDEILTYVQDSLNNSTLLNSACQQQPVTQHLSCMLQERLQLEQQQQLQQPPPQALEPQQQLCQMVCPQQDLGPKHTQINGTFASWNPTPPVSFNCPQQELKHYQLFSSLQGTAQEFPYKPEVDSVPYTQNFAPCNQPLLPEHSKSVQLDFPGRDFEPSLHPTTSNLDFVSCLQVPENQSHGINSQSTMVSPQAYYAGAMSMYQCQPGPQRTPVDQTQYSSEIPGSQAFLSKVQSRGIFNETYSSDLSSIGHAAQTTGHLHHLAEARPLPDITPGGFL
Outline: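 Mouse cells stably carrying a DRE-driven, AHR-inducible firefly luciferase reporter were prestimulated with the endogenous agonist kynurenic acid before compound addition. Luciferase activity was measured by luminescence and normalized to positive and negative controls, with cells lacking kynurenic acid serving as full-inhibition control. Repeat tests are reported as mean or median.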

[3] = mouse Hepa 1c1c7 cells, 200 μM kynurenic acid, 20 hours, read-out: AHR Antagonism Mouse IC50
[4] = Hepa 1c1c7 cells, 200 μM kynurenic acid, 20 hours, firefly luciferase reporter, read-out: AHR Antagonism Mouse IC50

Compound: CC[C@@H](Nc1nc2ccccc2c2nc(-c3cccc(C(F)(F)F)n3)nn12)C(N)=O [Example 371, (2R)-2-({2-[6-(trifluoromethyl)pyridin-2-yl][1,2,4]triazolo[1,5-c]quinazolin-5-yl}amino)butanamide]
- IC50 (AHR [1]): 7.24e-08 M
- IC50 (AHR [2]; [3]): 14.6 nM

Compound: COc1cscc1-c1nc2c3ccccc3nc(N[C@@H]3CCCCNC3=O)n2n1 [Example 333, (3R)-3-{[2-(4-Methoxythiophen-3-yl)[1,2,4]triazolo[1,5-c]quinazolin-5-yl]amino}azepan-2-one]
- IC50 (AHR [1]): 2.74e-08 M
- IC50 (AHR [2]; [3]): 28 nM

Compound: CCC[C@@H](Nc1nc2ccccc2c2nc(-c3ccccc3OC(F)F)nn12)C(=O)NC [Example 477, N^2-{2-[2-(difluoromethoxy)phenyl][1,2,4]triazolo[1,5-c]quinazolin-5-yl}-N-methyl-D-norvalinamide]
- IC50 (AHR [1]): 1.81e-08 M
- IC50 (AHR [2]; [3]): 1.44 nM

Compound: O=C1NCCCC[C@H]1Nc1nc2c(C(F)(F)F)cccc2c2nc(-c3cc[nH]n3)nn12 [Example 737, (3R)-3-{[2-(1H-pyrazol-3-yl)-7-(trifluoromethyl)[1,2,4]triazolo[1,5-c]quinazolin-5-yl]amino}azepan-2-one]
- IC50 (AHR [1]): 7.64e-09 M
- IC50 (AHR [2]; [3]): 15.1 nM

Compound: CCCNC(=O)[C@H](C)Nc1nc2c(Br)cccc2c2nc(-c3ccc(Cl)cc3OC(F)F)nn12 [Example 802, N^2-{7-bromo-2-[4-chloro-2-(difluoromethoxy)phenyl][1,2,4]triazolo[1,5-c]quinazolin-5-yl}-N-propyl-L-alaninamide]
- IC50 (AHR [1]; firefly luciferase reporter): 4.76e-08 M
- IC50 (AHR [2]; [4]): 12.5 nM

Compound: COc1ccc(-c2nc3c4cccc(C#N)c4nc(N[C@@H]4CCCCNC4=O)n3n2)cc1 [Example 721, 2-(4-methoxyphenyl)-5-{[(3R)-2-oxoazepan-3-yl]amino}[1,2,4]triazolo[1,5-c]quinazoline-7-carbonitrile]
- IC50 (AHR [1]): 2.47e-09 M
- IC50 (AHR [2]; [3]): 10.6 nM

Compound: CCn1cc(-c2nc3c4cccc(F)c4nc(N[C@@H]4CCCCNC4=O)n3n2)cn1 [Example 834, (3R)-3-{[2-(1-ethyl-1H-pyrazol-4-yl)-7-fluoro[1,2,4]triazolo[1,5-c]quinazolin-5-yl]amino}azepan-2-one]
- IC50 (AHR [1]; firefly luciferase reporter): 6.25e-09 M
- IC50 (AHR [2]; [4]): 10.7 nM

Compound: COc1ccc(-c2nc3c4ccccc4nc(N[C@H](C)C(=O)NCCN4CCOCC4)n3n2)cc1 [Example 779, N^2-[2-(4-methoxyphenyl)[1,2,4]triazolo[1,5-c]quinazolin-5-yl]-N-[2-(morpholin-4-yl)ethyl]-D-alaninamide]
- IC50 (AHR [1]): 4.3e-09 M
- IC50 (AHR [2]; [3]): 5.96 nM

Compound: CCn1cc(-c2nc3c4cccc(Cl)c4nc(N[C@@H]4CNCCNC4=O)n3n2)c(C)n1 [Example 958, (6R)-6-{[7-chloro-2-(1-ethyl-3-methyl-1H-pyrazol-4-yl)[1,2,4]triazolo[1,5-c]quinazolin-5-yl]amino}-1,4-diazepan-5-one]
- IC50 (AHR [1]; firefly luciferase reporter): 1.9e-09 M
- IC50 (AHR [2]; [4]): 2.84 nM

Compound: CCn1cc(-c2nc3c4cccc(C(F)(F)F)c4nc(N[C@@H]4CCCCNC4=O)n3n2)c(C)n1 [Example 674, (3R)-3-{[2-(1-ethyl-3-methyl-1H-pyrazol-4-yl)-7-(trifluoromethyl)[1,2,4]triazolo[1,5-c]quinazolin-5-yl]amino}azepan-2-one]
- IC50 (AHR [1]): 3.44e-10 M
- IC50 (AHR [2]; [3]): 0.669 nM

Compound: CC(C)c1cccc2c1nc(N[C@@H]1CCCCNC1=O)n1nc(-c3cnn(C)c3)nc21 [Example 588, (3R)-3-{[2-(1-methyl-1H-pyrazol-4-yl)-7-(propan-2-yl)[1,2,4]triazolo[1,5-c]quinazolin-5-yl]amino}azepan-2-one]
- IC50 (AHR [1]): 1.84e-08 M
- IC50 (AHR [2]; [3]): 1060 nM

Compound: COc1ccc(-c2nc3c4ccc(Br)cc4nc(N[C@@H]4CCCCNC4=O)n3n2)cc1 [Example 229, (3R)-3-{[8-bromo-2-(4-methoxyphenyl)[1,2,4]triazolo[1,5-c]quinazolin-5-yl]amino}azepan-2-one]
- IC50 (AHR [1]): 5.82e-08 M
- IC50 (AHR [2]; [3]): 101 nM

Compound: CC[C@H](Nc1nc2c(Br)cccc2c2nc(-c3ccc(Cl)cc3OC(F)F)nn12)C(N)=O [Example 698, (2S)-2-({7-bromo-2-[4-chloro-2-(difluoromethoxy)phenyl][1,2,4]triazolo[1,5-c]quinazolin-5-yl}amino)butanamide]
- IC50 (AHR [1]): 4.68e-08 M
- IC50 (AHR [2]; read-out: AHR Antagonism Mouse IC50, mouse Hepa 1c1c7 cells, 200 μM kynurenic acid, 20 hours): 7.35 nM

Compound: O=C1NCCCC[C@H]1Nc1nc2c(Cl)cccc2c2nc(-c3ccc(F)cc3)nn12 [Example 554, (3R)-3-{[7-chloro-2-(4-fluorophenyl)[1,2,4]triazolo[1,5-c]quinazolin-5-yl]amino}azepan-2-one]
- IC50 (AHR [1]): 7.68e-09 M
- IC50 (AHR [2]; [3]): 2.45 nM

Compound: COc1ccc(-c2nc3c4cccc(Br)c4nc(N[C@H](C)C(=O)N4CC5(CN(C(=O)OC(C)(C)C)C5)C4)n3n2)cc1 [Example 920, tert-butyl 6-{N-[7-bromo-2-(4-methoxyphenyl)[1,2,4]triazolo[1,5-c]quinazolin-5-yl]-D-alanyl}-2,6-diazaspiro[3.3]heptane-2-carboxylate]
- IC50 (AHR [1]; firefly luciferase reporter): 7.45e-09 M
- IC50 (AHR [2]; [4]): 11 nM

Compound: CC(C)n1cc(-c2nc3c4cccc(S(C)(=O)=O)c4nc(N[C@@H]4CCCCNC4=O)n3n2)cn1 [Example 846, (3R)-3-({7-(methanesulfonyl)-2-[1-(propan-2-yl)-1H-pyrazol-4-yl][1,2,4]triazolo[1,5-c]quinazolin-5-yl}amino)azepan-2-one]
- IC50 (AHR [1]; firefly luciferase reporter): 1.29e-08 M
- IC50 (AHR [2]; [4]): 232 nM

Compound: COc1ccc(-c2nc3c4cccc(CO)c4nc(N[C@@H]4CCCCNC4=O)n3n2)cc1 [Example 860, (3R)-3-{[7-(hydroxymethyl)-2-(4-methoxyphenyl)[1,2,4]triazolo[1,5-c]quinazolin-5-yl]amino}azepan-2-one]
- IC50 (AHR [1]; firefly luciferase reporter): 9.26e-10 M
- IC50 (AHR [2]; [4]): 16 nM

Compound: CC[C@@H](Nc1nc2ccccc2c2nc(-c3ccc(OC)cc3)nn12)C(N)=O [Example 379, (2R)-2-{[2-(4-methoxyphenyl)[1,2,4]triazolo[1,5-c]quinazolin-5-yl]amino}butanamide]
- IC50 (AHR [1]): 7.6e-10 M
- IC50 (AHR [2]; [3]): 0.993 nM

Compound: CN(C)c1cccc2c1nc(N[C@@H]1CCCCNC1=O)n1nc(-c3cnn(C)c3)nc21 [Example 828, (3R)-3-{[7-(dimethyalmino)-2-(1-methyl-1H-pyrazol-4-yl)[1,2,4]triazolo[1,5-c]quinazolin-5-yl]amino}azepan-2-one]
- IC50 (AHR [1]; firefly luciferase reporter): 1.78e-07 M
- IC50 (AHR [2]; [4]): 13500 nM

Compound: CC(C)[C@@H](Nc1nc2c(Br)cccc2c2nc(-c3cnn(C)c3)nn12)C(N)=O [Example 578, N^2-[7-bromo-2-(1-methyl-1H-pyrazol-4-yl)[1,2,4]triazolo[1,5-c]quinazolin-5-yl]-D-valinamide]
- IC50 (AHR [1]): 1.25e-08 M
- IC50 (AHR [2]; [3]): 2.91 nM

Compound: COc1ccc(-c2nc3c4c(OC)cccc4nc(N[C@@H]4CCCCNC4=O)n3n2)cc1 [Example 245, (3R)-3-{[10-methoxy-2-(4-methoxyphenyl)[1,2,4]triazolo[1,5-c]quinazolin-5-yl]amino}azepan-2-one]
- IC50 (AHR [1]): 3.21e-08 M
- IC50 (AHR [2]; [3]): 310 nM
